What was measured:
hERG = hERG (Homo sapiens, UniProt Q12809); assay: Patch clamp assay (hERG tail currents, whole-cell)
[1] = system: MLLr leukemia cell line MV4-11; assay: Cell proliferation assay MV4;11 (CellTiter-Glo, 72 hours); assay type: cell-based; conditions: Homo sapiens; MV4-11 cells, 72 hours, CellTiter-Glo; read-out: MV4; 11 IC50
In short: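 Cells in IMDM/10% FBS, seeded from a 15,000 cells/ml suspension, were exposed for 72 h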

Chain of hERG (Q12809 whole entry): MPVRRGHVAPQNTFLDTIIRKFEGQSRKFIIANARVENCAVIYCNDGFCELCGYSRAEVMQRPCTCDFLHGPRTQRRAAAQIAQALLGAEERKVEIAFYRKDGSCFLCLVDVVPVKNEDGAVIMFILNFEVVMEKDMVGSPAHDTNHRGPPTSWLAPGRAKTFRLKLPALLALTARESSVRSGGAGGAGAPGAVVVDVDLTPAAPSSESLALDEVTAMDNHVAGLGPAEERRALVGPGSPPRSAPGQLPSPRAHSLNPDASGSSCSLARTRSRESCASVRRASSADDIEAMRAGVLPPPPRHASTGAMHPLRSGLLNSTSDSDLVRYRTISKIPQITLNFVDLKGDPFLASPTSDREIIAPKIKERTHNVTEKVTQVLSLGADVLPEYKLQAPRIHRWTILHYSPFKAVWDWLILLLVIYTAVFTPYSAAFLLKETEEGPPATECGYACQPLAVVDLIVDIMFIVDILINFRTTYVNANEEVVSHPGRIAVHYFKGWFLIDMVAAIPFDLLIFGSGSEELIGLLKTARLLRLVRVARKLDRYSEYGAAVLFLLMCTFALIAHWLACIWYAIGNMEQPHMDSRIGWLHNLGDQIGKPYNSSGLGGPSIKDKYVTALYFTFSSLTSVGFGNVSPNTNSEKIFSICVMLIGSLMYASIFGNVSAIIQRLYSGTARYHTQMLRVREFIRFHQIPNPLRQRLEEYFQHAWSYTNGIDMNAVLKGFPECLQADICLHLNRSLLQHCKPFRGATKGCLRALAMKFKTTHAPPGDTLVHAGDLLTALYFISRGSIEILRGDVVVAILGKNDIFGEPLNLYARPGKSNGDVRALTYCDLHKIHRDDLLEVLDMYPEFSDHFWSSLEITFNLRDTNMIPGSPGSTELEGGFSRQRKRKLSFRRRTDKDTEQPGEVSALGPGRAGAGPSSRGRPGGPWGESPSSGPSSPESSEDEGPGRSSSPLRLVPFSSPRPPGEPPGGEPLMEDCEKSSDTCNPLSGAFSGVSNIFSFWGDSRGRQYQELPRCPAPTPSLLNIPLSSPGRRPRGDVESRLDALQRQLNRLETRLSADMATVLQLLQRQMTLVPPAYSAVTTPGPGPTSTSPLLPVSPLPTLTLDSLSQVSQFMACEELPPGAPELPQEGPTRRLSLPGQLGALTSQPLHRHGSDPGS

SMILES | IC50 [1] [µM] | hERG % Remaining (hERG; 10 μM compound) | hERG % Remaining (hERG; 30 μM compound)
CC(C)N(C(=O)c1cc(F)ccc1Oc1cncnc1N1CC2(CCN(C[C@@H]3CC[C@@H](NS(=O)(=O)c4cnn(C5CC5)c4)CO3)CC2)C1)C(C)C [Example 83, 2-((4-(7-(((2S,5R)-5-((1-Cyclopropyl-1H-pyrazole)-4-sulfonamido)tetrahydro-2H-pyran-2-yl)methyl)-2,7-diazaspiro[3.5]nonan-2-yl)pyrimidin-5-yl)oxy)-5-fluoro-N,N-diisopropylbenzamide] | < 0.1 | +++ (≥66%) | ++ (233% and ≤66%)
Cc1ncc(S(=O)(=O)N[C@@H]2CC[C@@H](CN3CCC4(CC3)CN(c3ncncc3Oc3ccc(F)cc3C(=O)N(C(C)C)C(C)C)C4)OC2)s1 [Example 84, 5-Fluoro-N,N-diisopropyl-2-((4-(7-(((2S,5R)-5-((2-methylthiazole)-5-sulfonamido)tetrahydro-2H-pyran-2-yl)methyl)-2,7-diazaspiro[3.5]nonan-2-yl)pyrimidin-5-yl)oxy)benzamide] | < 0.1 | ++ (233% and ≤66%) | + (<33%)
CC(C)N(C(=O)c1cc(F)ccc1Oc1cncnc1N1CC2(CCN(C[C@@H]3CC[C@@H](NS(=O)(=O)c4cnn(C(F)F)c4)CO3)CC2)C1)C(C)C [Example 85, 2-((4-(7-(((2S,5R)-5-((1-(Difluoromethyl)-1H-pyrazole)-4-sulfonamido)tetrahydro-2H-pyran-2-yl)methyl)-2,7-diazaspiro[3.5]nonan-2-yl)pyrimidin-5-yl)oxy)-5-fluoro-N,N-diisopropylbenzamide] | < 0.1 | ++ (233% and ≤66%) | + (<33%)
CC(C)N(C(=O)c1cc(F)ccc1Oc1cncnc1N1CC2(CCN(C[C@@H]3CC[C@@H](NS(=O)(=O)c4cnn(C)c4)CO3)CC2)C1)C(C)C [Example 86, 5-Fluoro-N,N-diisopropyl-2-((4-(7-(((2S,5R)-5-((1-methyl-1H-pyrazole)-4-sulfonamido)tetrahydro-2H-pyran-2-yl)methyl)-2,7-diazaspiro[3.5]nonan-2-2-yl)pyrimidin-5-yl)oxy)benzamide] | < 0.1 | +++ (≥66%) | +++ (≥66%)
CC(C)N(C(=O)c1cc(F)ccc1Oc1cncnc1N1CC2(CCN(C[C@@H]3CC[C@@H](NS(=O)(=O)c4ccn(C)n4)CO3)CC2)C1)C(C)C [Example 87, 5-Fluoro-N,N-diisopropyl-2-((4-(7-(((2S,5R)-5-((1-methyl-1H-pyrazole)-3-sulfonamido)tetrahydro-2H-pyran-2-yl)methyl)-2,7-diazaspiro[3.5]nonan-2-yl)pyrimidin-5-yl)oxy)benzamide] | < 0.1 |  | +++ (≥66%)
Cc1nc(S(=O)(=O)N[C@@H]2CC[C@@H](CN3CCC4(CC3)CN(c3ncncc3Oc3ccc(F)cc3C(=O)N(C(C)C)C(C)C)C4)OC2)co1 [Example 91, 5-Fluoro-N,N-diisopropyl-2-((4-(7-(((2S,5R)-5-((2-methyloxazole)-4-sulfonamido)tetrahydro-2H-pyran-2-yl)methyl)-2,7-diazaspiro[3.5]nonan-2-yl)pyrimidin-5-yl)oxy)benzamide] | < 0.1 |  | ++ (233% and ≤66%)
CC(C)N(CC(F)F)C(=O)c1cc(F)ccc1Oc1cncnc1N1CC2(CCN(C[C@@H]3CC[C@@H](NS(=O)(=O)c4cnn(C)c4)CO3)CC2)C1 [Example 100, N-(2,2-Difluoroethyl)-5-fluoro-N-isopropyl-2-((4-(7-(((2S,5R)-5-((1-methyl-1H-pyrazole)-4-sulfonamido)tetrahydro-2H-pyran-2-yl)methyl)-2,7-diazaspiro[3.5]nonan-2-yl)pyrimidin-5-yl)oxy)benzamide] | < 0.1 | +++ (≥66%) | +++ (≥66%)

Continued, in another order:

IC50 [1] [µM] | SMILES | hERG % Remaining (hERG; 10 μM compound) | hERG % Remaining (hERG; 30 μM compound)
< 0.1 | CCN(C(=O)c1cc(F)ccc1Oc1cncnc1N1CC2(CCN(C[C@@H]3CC[C@@H](NS(=O)(=O)c4csc(C)n4)CO3)CC2)C1)C(C)C [Example 71, N-Ethyl-5-fluoro-N-isopropyl-2-((4-(7-(((2S,5R)-5-((2-methylthiazole)-4-sulfonamido)tetrahydro-2H-pyran-2-yl)methyl)-2,7-diazaspiro[3.5]nonan-2-yl)pyrimidin-5-yl)oxy)benzamide] | +++ (≥66%) | ++ (233% and ≤66%)
< 0.1 | CCN(C(=O)c1cc(F)ccc1Oc1cncnc1N1CC2(CCN(C[C@@H]3CC[C@@H](NS(=O)(=O)c4cnc(C)o4)CO3)CC2)C1)C(C)C [Example 72, N-Ethyl-5-fluoro-N-isopropyl-2-((4-(7-(((2S,5R)-5-((2-methyloxazole)-5-sulfonamido)tetrahydro-2H-pyran-2-yl)methyl)-2,7-diazaspiro[3.5]nonan-2-yl)pyrimidin-5-yl)oxy)benzamide] | ++ (233% and ≤66%) | + (<33%)
< 0.1 | CCN(C(=O)c1cc(F)ccc1Oc1cncnc1N1CC2(CCN(C[C@@H]3CC[C@@H](NS(=O)(=O)c4c[nH]c(=O)cc4C)CO3)CC2)C1)C(C)C [Example 75, N-Ethyl-5-fluoro-N-isopropyl-2-((4-(7-(((2S,5R)-5-((4-methyl-6-oxo-1,6-dihydropyridine)-3-sulfonamido)tetrahydro-2H-pyran-2-yl)methyl)-2,7-diazaspiro[3.5]nonan-2-yl)pyrimidin-5-yl)oxy)benzamide] |  | +++ (≥66%)
< 0.1 | Cc1ncc(S(=O)(=O)N[C@@H]2CC[C@@H](CN3CCC4(CC3)CN(c3ncncc3Oc3ccc(F)cc3C(=O)N(C(C)C)C(C)C)C4)OC2)o1 [Example 80, 5-Fluoro-N,N-diisopropyl-2-((4-(7-(((2S,5R)-5-((2-methyloxazole)-5-sulfonamido)tetrahydro-2H-pyran-2-yl)methyl)-2,7-diazaspiro[3.5]nonan-2-yl)pyrimidin-5-yl)oxy)benzamide] | ++ (233% and ≤66%) | + (<33%)
< 0.1 | Cc1nc(S(=O)(=O)N[C@@H]2CC[C@@H](CN3CCC4(CC3)CN(c3ncncc3Oc3ccc(F)cc3C(=O)N(C(C)C)C(C)C)C4)OC2)cs1 [Example 81, 5-Fluoro-N,N-diisopropyl-2-((4-(7-(((2S,5R)-5-((2-methylthiazole)-4-sulfonamido)tetrahydro-2H-pyran-2-yl)methyl)-2,7-diazaspiro[3.5]nonan-2-yl)pyrimidin-5-yl)oxy)benzamide] | ++ (233% and ≤66%) | ++ (233% and ≤66%)
< 0.1 | CC(C)N(C(=O)c1cc(F)ccc1Oc1cncnc1N1CC2(CCN(C[C@@H]3CC[C@@H](NS(=O)(=O)c4cnn(C)c4Cl)CO3)CC2)C1)C(C)C [Example 82, 2-((4-(7-(((2S,5R)-5-((5-Chloro-1-methyl-1H-pyrazole)-4-sulfonamido)tetrahydro-2H-pyran-2-yl)methyl)-2,7-diazaspiro[3.5]nonan-2-yl)pyrimidin-5-yl)oxy)-5-fluoro-N,N-diisopropylbenzamide] | ++ (233% and ≤66%) | + (<33%)

Reference: patent publication US20240400564A1 (Syndax Pharmaceuticals, Inc, priority 2021, published 2024)
